In patent US10233146B2, “Acetylenic cyanoenones as therapeutics for inflammation and carcinogenesis” (THE RESEARCH FOUNDATION FOR THE STATE UNIVERSITY OF NEW YORK, priority 2015, dated 2019):

system: not listed separately; test: UV study of Michael adduct formation with DTT; format: physicochemical; settings: 0.1 mM compound, 0.1 mM DTT, phosphate buffer saline-1% ethanol (pH 7.4), rt
Description: Calculation of Approximate Equilibrium Constant (K)
The concentrations of 3, with initial concentration of 0.1 mM, and DTT, with initial concentration of 0.1 mM, in the phosphate buffer are calculated to be 0.0855 mM as follows: (1) The absorbance (A) is 0.956 at 0.1 mM concentration of 3 in deionized water. (2) The A of 3 is 0.817 in the phosphate buffer. (3) The concentrations of 3 and DTT in the buffer are calculated to be 0.0855 mM based on (1) and (2). From these concentrations, the approximate K is calculated as follows: K=[Adduct]/[3]×[DTT]=0.0145×10^−3/[…]=2.0×10^3 (Liters/mol).
Unfortunately, since the λmax of 4-8 was not observed due to the overlapping, we can't calculate the concentrations of the adducts of 4-8 by the same method as for 3. However, since we can speculate that the ε of the adducts of 4-8 is almost similar to that of the adduct of 2, we can calculate the concentrations of the adducts of 4-8 based on the A (0.227 at 0.0145 mM) of the adduct of […] and the A of the adducts of 4-8. For example, the concentration of the adduct of 5 is 0.0145×0.369 (A of the adduct of 5)/0.227=0.0235 (mM). Therefore, the concentrations of 5 and DTT are 0.0765 (mM/each). Thus, K of 5=0.0235×10^−3/0.0765×0.0765×10^−6=4.0×10^3 (Liters/mol). The K of 4 and 6-8 are also calculated using the A (0.227 at 0.0145 mM) of the adduct of 3 and the A of the adducts of 4 and 6-8, respectively.
Chemical reactivity of monocyclic, bicyclic, and tricyclic compounds 4-15 as Michael acceptors was evaluated using UV spectroscopy.
Michael reaction between ethynylcyanodienones with DTT give adducts IV (Scheme 11). Since adducts IV have different UV absorption spectra (λmax 330-380 nm) from those of the corresponding ethynylcyanodienones (λmax 230-320 nm), UV spectroscopy can clarify whether or not the Michael adducts are produced.^6
(§1) 1. UV Studies on Monocyclic and Bicyclic Compounds 4-9 with DTT Compounds 5-8 with DTT gave similar UV spectra to those of 3 (Taylor, S. K. et al. 1988). Compounds 5-8 have local maximum absorptions at 332-338 nm upon the addition of DTT (1 and 10 equiv) under dilute (0.1 mM of the compounds) and neutral aqueous conditions (pH 7.4 phosphate buffered saline-1% ethanol containing 1 mM KH2PO4, 5.6 mM Na2HPO4, and 154 mM NaCl) (Table 1 and FIG. 2). Also, these compounds react with a chloride anion (a much weaker nucleophile than a sulfhydryl group of DTT), which is contained in the buffer solution, to give Michael adducts whose local maximum absorptions are observed at 320-326 nm.
We have calculated approximate equilibrium constants (K) of these Michael reactions in the solutions of 5-8 with DTT (each initial concentration, 0.1 mM. See the calculation of the equilibrium constants in the Supporting Information). The values of K are approximately 1.0-4.2×10^3 (L/mol), implying that these additions are very strongly favored.
Tricyclic compounds 10-15 react with DTT to give the adducts whose local maximum absorptions are observed at 374-383 nm range (Table 1 and FIG. 2). […] Among phenanthrene derivatives, substitutents at C5 decrease the reactivity.

Row | Compound | A (absorbance) With DTT (1 equiv) | λmax With DTT (1 equiv)
1 | C#CC12C=C(C#N)C(=O)C=C1C(C)(C)CC2 (centres unmarked) [Compound 8, 3a-Ethynyl-1,1-dimethyl-6-oxo-2,3,3a,6-tetrahydro-1H-indene-5-carbonitrile] | 0.376 | 333 nm
2 | C#CC1(C=C)C=CC(=O)C(C#N)=C1 (centres unmarked) [Compound 5, 3-Ethynyl-6-oxo-3-vinylcyclohexa-1,4-dienecarbonitrile] | 0.369 | 335 nm
3 | C#CC12C=C(C#N)C(=O)C=C1c1c(Cl)cccc1C2 (centres unmarked) [Compound 15, 5-Chloro-9a-ethynyl-3-oxo-9,9a-dihydro-3H-fluorene-2-carbonitrile] | 0.819 | 378 nm

same assay, conditions: 0.1 mM compound, 1 mM DTT, phosphate buffer saline-1% ethanol (pH 7.4), rt

Row | Compound | A (absorbance) With DTT (10 equiv) | λmax With DTT (10 equiv)
4 | C#CC12C=C(C#N)C(=O)C=C1c1c(C)cccc1CC2 (centres unmarked) [Compound 13, 10a-Ethynyl-5-methyl-3-oxo-3,9,10,10a-tetrahydrophenanthrene-2-carbonitrile] | 0.279 | 374 nm
5 | C#CC12C=C(C#N)C(=O)C=C1C(C)(C)CC2 (centres unmarked) [Compound 8, 3a-Ethynyl-1,1-dimethyl-6-oxo-2,3,3a,6-tetrahydro-1H-indene-5-carbonitrile] | 0.472 | 337 nm
6 | C#CC1(C=C)C=CC(=O)C(C#N)=C1 (centres unmarked) [Compound 5, 3-Ethynyl-6-oxo-3-vinylcyclohexa-1,4-dienecarbonitrile] | 0.481 | 338 nm
7 | C#CC12C=C(C#N)C(=O)C=C1c1c(Cl)cccc1C2 (centres unmarked) [Compound 15, 5-Chloro-9a-ethynyl-3-oxo-9,9a-dihydro-3H-fluorene-2-carbonitrile] | 0.803 | 383 nm

same assay, conditions: 0.1 mM of compound with 0.1 mM of DTT

Row | Compound | K (equilibrium constant)
8 | C#CC12C=C(C#N)C(=O)C=C1C(C)(C)CC2 (centres unmarked) [Compound 8, 3a-Ethynyl-1,1-dimethyl-6-oxo-2,3,3a,6-tetrahydro-1H-indene-5-carbonitrile] | 4200 L/mol
9 | C#CC1(C=C)C=CC(=O)C(C#N)=C1 (centres unmarked) [Compound 5, 3-Ethynyl-6-oxo-3-vinylcyclohexa-1,4-dienecarbonitrile] | 4000 L/mol

same assay, conditions: initial 0.1 mM compound and 0.1 mM DTT, phosphate buffer

Row | Compound | approximate equilibrium constant K (calculation)
10 | C#CC1(C=C)C=CC(=O)C(C#N)=C1 (centres unmarked) [Compound 5, 3-Ethynyl-6-oxo-3-vinylcyclohexa-1,4-dienecarbonitrile] | 4000 L/mol

system: not given; test: not given; settings: not given

Row | Compound | melting point
11 | C#CC12C=C(C#N)C(=O)C=C1c1c(Br)cccc1CC2 (centres unmarked) [Compound 12, 5-Bromo-10a-ethynyl-3-oxo-3,9,10,10a-tetrahydrophenanthrene-2-carbonitrile] | 202 to 205 °C
12 | C#CC12C=C(C#N)C(=O)C=C1c1c(C)cccc1CC2 (centres unmarked) [Compound 13, 10a-Ethynyl-5-methyl-3-oxo-3,9,10,10a-tetrahydrophenanthrene-2-carbonitrile] | 195.5 to 197 °C
13 | C#CC1(C=C)C=CC(=O)C(C#N)=C1 (centres unmarked) [Compound 5, 3-Ethynyl-6-oxo-3-vinylcyclohexa-1,4-dienecarbonitrile] | 76 to 77 °C
14 | C#CC12C=C(C#N)C(=O)C=C1c1c(Cl)cccc1C2 (centres unmarked) [Compound 15, 5-Chloro-9a-ethynyl-3-oxo-9,9a-dihydro-3H-fluorene-2-carbonitrile] | 191 to 193 °C

system: not listed separately; test: UV study of Michael adduct formation with chloride anion of the buffer (without DTT); format: physicochemical; settings: 0.1 mM compound, phosphate buffer saline-1% ethanol (pH 7.4)
Description: as §1, with “nm. […]” for “nm.”

Row | Compound | A (absorbance) Without DTT (With Cl^—) | λmax Without DTT (With Cl^—)
15 | C#CC12C=C(C#N)C(=O)C=C1C(C)(C)CC2 (centres unmarked) [Compound 8, 3a-Ethynyl-1,1-dimethyl-6-oxo-2,3,3a,6-tetrahydro-1H-indene-5-carbonitrile] | 0.279 | 324 nm
16 | C#CC1(C=C)C=CC(=O)C(C#N)=C1 (centres unmarked) [Compound 5, 3-Ethynyl-6-oxo-3-vinylcyclohexa-1,4-dienecarbonitrile] | 0.197 | 326 nm
17 | C#CC12C=C(C#N)C(=O)C=C1c1c(Cl)cccc1C2 (centres unmarked) [Compound 15, 5-Chloro-9a-ethynyl-3-oxo-9,9a-dihydro-3H-fluorene-2-carbonitrile] | 1.025 | 369 nm

system: iNOS; test: not given; settings: not given

Row | Compound | IC50
18 | C[S+]([O-])CCCCN=C=S (centres unmarked) [Sulforaphane, reference compound] | 400 nM
19 | C#CC12C=C(C#N)C(=O)C=C1c1c(Br)cccc1CC2 (centres unmarked) [Compound 12, 5-Bromo-10a-ethynyl-3-oxo-3,9,10,10a-tetrahydrophenanthrene-2-carbonitrile] | 650 nM
20 | C#CC12C=C(C#N)C(=O)C=C1c1c(C)cccc1CC2 (centres unmarked) [Compound 13, 10a-Ethynyl-5-methyl-3-oxo-3,9,10,10a-tetrahydrophenanthrene-2-carbonitrile] | 940 nM
21 | CC1(C)CC[C@]2(C(=O)O)CC[C@]3(C)[C@H](C(=O)C=C4[C@@]5(C)C=C(C#N)C(=O)C(C)(C)[C@@H]5CC[C@]43C)[C@@H]2C1 [CDDO, reference compound] | 23 nM
22 | C#CC12C=C(C#N)C(=O)C=C1C(C)(C)CC2 (centres unmarked) [Compound 8, 3a-Ethynyl-1,1-dimethyl-6-oxo-2,3,3a,6-tetrahydro-1H-indene-5-carbonitrile] | 200 nM
23 | C#CC1(C=C)C=CC(=O)C(C#N)=C1 (centres unmarked) [Compound 5, 3-Ethynyl-6-oxo-3-vinylcyclohexa-1,4-dienecarbonitrile] | 16 nM
24 | C#CC12C=C(C#N)C(=O)C=C1c1c(Cl)cccc1C2 (centres unmarked) [Compound 15, 5-Chloro-9a-ethynyl-3-oxo-9,9a-dihydro-3H-fluorene-2-carbonitrile] | 800 nM

system: NQO1; test: Induction of NQO1 in Hepa1c1c7 murine hepatoma cells; format: cell-based; settings: Hepa1c1c7 cells, 48 h treatment; read-out: NQO1 CD (concentration required to double the specific enzyme activity of NQO1)
Source text: In this assay, the concentration required to double (CD value) the specific enzyme activity of NQO1 is used to quantify inducer potency. […] Dinkova-KOstova, A. T. et al. 2012). […] These compounds may be more robust inducers than monocyclic compounds. [table]

Row | Compound | EC (2-fold NQO1 activity)
25 | CC1(C)CC[C@]2(C(=O)O)CC[C@]3(C)[C@H](C(=O)C=C4[C@@]5(C)C=C(C#N)C(=O)C(C)(C)[C@@H]5CC[C@]43C)[C@@H]2C1 [CDDO, reference compound] | 0.0023 µM

same assay, conditions: Mus musculus, Hepa-1c1c7; Hepa1c1c7 cells, 48 h treatment; read-out: NQO1 CD (concentration required to double the specific enzyme activity of NQO1)

Row | Compound | EC (2-fold NQO1 activity)
26 | C[S+]([O-])CCCCN=C=S (centres unmarked) [Sulforaphane, reference compound] | 0.2 µM
27 | C#CC12C=C(C#N)C(=O)C=C1c1c(Br)cccc1CC2 (centres unmarked) [Compound 12, 5-Bromo-10a-ethynyl-3-oxo-3,9,10,10a-tetrahydrophenanthrene-2-carbonitrile] | 1.3 µM
28 | C#CC12C=C(C#N)C(=O)C=C1c1c(C)cccc1CC2 (centres unmarked) [Compound 13, 10a-Ethynyl-5-methyl-3-oxo-3,9,10,10a-tetrahydrophenanthrene-2-carbonitrile] | 1.8 µM
29 | C#CC12C=C(C#N)C(=O)C=C1C(C)(C)CC2 (centres unmarked) [Compound 8, 3a-Ethynyl-1,1-dimethyl-6-oxo-2,3,3a,6-tetrahydro-1H-indene-5-carbonitrile] | 0.1 µM
30 | C#CC1(C=C)C=CC(=O)C(C#N)=C1 (centres unmarked) [Compound 5, 3-Ethynyl-6-oxo-3-vinylcyclohexa-1,4-dienecarbonitrile] | 0.02 µM
31 | C#CC12C=C(C#N)C(=O)C=C1c1c(Cl)cccc1C2 (centres unmarked) [Compound 15, 5-Chloro-9a-ethynyl-3-oxo-9,9a-dihydro-3H-fluorene-2-carbonitrile] | 0.13 µM
